Reference: patent US20260191982A1, “ANTI-BASAL CELL ADHESION MOLECULE ANTIBODY-DRUG CONJUGATE” (Genome & Company, Inc., priority 2022, published 2026)
Non-standard residues stand in square brackets, D forms with d. Residues, ends and D or L forms follow the SMILES beside them. Groups on a side chain read outwards from the residue. *: point of attachment. DM1Mal(CH2)2CO = COc1cc2cc(c1Cl)N(C)C(=O)C[C@H](OC(=O)[C@H](C)N(C)C(=O)CCSC1CC(=O)N(CCC(=O)*)C1=O)[C@]1(C)O[C@H]1[C@H](C)[C@@H]1C[C@@](O)(NC(=O)O1)[C@H](OC)/C=C/C=C(\C)C2; X2 = CC(=O)N[C@@H](CSC1CC(=O)N(CCC(=O)*)C1=O)C(=O)O; Dolaproine = CO[C@@H]([C@@H]1CCCN1)[C@@H](C)C(=O)O; Dil = CC[C@H](C)[C@H](NC)[C@@H](CC(=O)O)OC; NMe2Val = CC(C)[C@@H](C(=O)*)N(C)C; PEG5 = NCCOCCOCCOCCOCCOCCC(=O)O; Cit = NC(=O)NCCC[C@H](N)C(=O)O; PEG4 = NCCOCCOCCOCCOCCC(=O)O

Target: T1, Cathepsin B (Homo sapiens, UniProt P07858)
T1 construct: purchased R&D Systems, Bio-Techne AG 953-CY-010
Test: Cat B-induced cleavage, in vitro enzymatic cleavage assay with UHPLC-MS/MS
Type: biochemical
Details: for Ratio (T1/2 Compound/T1/2 Reference): versus Cys-MC-Val-Cit-PABC-MMAF; for half-life at 10 μM: human, recombinant human Cathepsin B (activated), 10 μM test compound, Cathepsin B 2 μg/mL, MES buffer pH 5.0, 37° C., read-out: T1/2 Compound
Procedure: Cat B-induced cleavage of the antibody-drug conjugates can be evaluated according to the in vitro enzymatic cleavage assay using recombinant human Cathepsin B (commercially acquired from R&D Systems, Bio-Techne AG, cat #. 953-CY-010 in the form of a precursor) and UHPLC-MS/MS analysis.
Briefly, the enzyme is reconstituted in 25 mM 2-(N-morpholino) ethanesulfonic acid (MES) buffer adjusted at pH 5.0 with a 1M NaOH solution and then activated with a […] solution of Dithiothreitol (DDT) at room temperature for at least 15 min. The in vitro enzymatic assay is conducted at 37° C. with the test compound at a concentration of 10 μM (when the test compound is a linker according to the present invention wherein the maleimide group has been quenched in the presence of acetyl-cysteine (Ac-Cys-OH)) or 2.5 μM (when the test compound is an antibody-drug conjugate) in the presence of activated recombinant human Cathepsin B enzyme at 2 μg/mL in a 25 mM MES buffer pH 5.0. The enzymatic cleavage reaction is stopped for each defined time point by mixing a 1/10 ratio volume of acetonitrile+0.1% formic acid (FA) containing an internal standard (warfarine at 0.5 μM). Analysis is conducted using a Waters Acquity UPLC System coupled to a Waters Xevo TQ triple quad mass spectrometer. UHPLC is conducted with a HSS T3 1.8 μm 50×2.1 mm column (Waters) heated at 45° C. and fitted with 2 μm insert filter pre-column (Waters), and solvent systems A1 (H2O+0.1% FA) and B1 (acetonitrile+0.1% FA) at a flow rate of 0.6 mL/min and a 5-95% gradient of B1 over 2.0 min. MS/MS is performed using electrospray ionization (ESI) interface in positive mode and specific MRM transitions for each compound.
The propensity of compounds 1-13 to be cleaved by Cathepsin B was evaluated according to an in vitro enzymatic cleavage assay using recombinant human Cathepsin B and UHPLC-MS/MS analysis as described in Section 2.3.5 above.

Row | SMILES | Ratio (T1/2 Compound/T1/2 Reference) | Cat B-induced drug release, times faster than reference (compared to Cys-MC-Val-Cit-PABC-MMAF) | half-life at 10 μM
1 | CC[C@H](C)[C@@H]([C@@H](CC(=O)N1CCC[C@H]1[C@H](OC)[C@@H](C)C(=O)N[C@@H](Cc1ccccc1)C(=O)N[C@@H](CCCNC(=N)N)C(=O)N[C@@H](CCCCNC(=O)CCOCCOCCOCCOCCOCCNC(=O)CCN1C(=O)CC(SC[C@H](NC(C)=O)C(=O)O)C1=O)C(=O)N[C@@H](Cc1ccccc1)C(=O)O)OC)N(C)C(=O)[C@@H](NC(=O)[C@H](C(C)C)N(C)C)C(C)C (stereo partly drawn) [compound 1, AF-Arg-Lys(PEG4-Mal-Cys-Ac)-Phe-OH] (NMe2Val-V[Dil][Dolaproine]FRK([PEG5-X2])F-OH) | 0.12 | – | –
2 | CC[C@H](C)[C@@H]([C@@H](CC(=O)N1CCC[C@H]1[C@H](OC)[C@@H](C)C(=O)N[C@@H](Cc1ccccc1)C(=O)N[C@@H](CCCNC(=N)N)C(=O)N[C@@H](Cc1ccccc1)C(=O)N[C@@H](CCCCNC(=O)CCOCCOCCOCCOCCNC(=O)CCN1C(=O)CC(SC[C@H](NC(C)=O)C(=O)O)C1=O)C(=O)O)OC)N(C)C(=O)[C@@H](NC(=O)[C@H](C(C)C)N(C)C)C(C)C (stereo partly drawn) [compound 3, AF-Arg-Phe-Lys(PEG4-Mal-Cys-Ac)-OH] (NMe2Val-V[Dil][Dolaproine]FRFK([PEG4-X2])-OH) | 0.11 | – | –
3 | COc1cc2cc(c1Cl)N(C)C(=O)C[C@H](OC(=O)[C@H](C)N(C)C(=O)CCSC1CC(=O)N(CCC(=O)N[C@@H](Cc3ccccc3)C(=O)N[C@@H](CCCCN)C(=O)N[C@@H](CCCCNC(=O)CCOCCOCCOCCOCCNC(=O)CCN3C(=O)CC(SC[C@H](NC(C)=O)C(=O)O)C3=O)C(=O)N[C@@H](Cc3ccccc3)C(=O)O)C1=O)[C@]1(C)O[C@H]1[C@H](C)[C@@H]1C[C@@](O)(NC(=O)O1)[C@H](OC)/C=C/C=C(\C)C2 (stereo partly drawn) [compound 5, DM1-Mal-Phe-Lys-Lys(PEG4-Mal-Cys-Ac)-Phe-OH] ({DM1Mal(CH2)2CO}-FKK([PEG4-X2])F-OH) | 0.05 | 20 times | –
4 | COc1cc2cc(c1Cl)N(C)C(=O)C[C@H](OC(=O)[C@H](C)N(C)C(=O)CCSC1CC(=O)N(CCC(=O)N[C@@H](Cc3ccccc3)C(=O)N[C@@H](CCCNC(N)=O)C(=O)N[C@@H](CCCCNC(=O)CCOCCOCCOCCOCCNC(=O)CCN3C(=O)CC(SC[C@H](NC(C)=O)C(=O)O)C3=O)C(=O)N[C@@H](Cc3ccccc3)C(=O)O)C1=O)[C@]1(C)O[C@H]1[C@H](C)[C@@H]1C[C@@](O)(NC(=O)O1)[C@H](OC)/C=C/C=C(\C)C2 (stereo partly drawn) [compound 6, DM1-Mal-Phe-Cit-Lys(PEG4-Mal-Cys-Ac)-Phe-OH] ({DM1Mal(CH2)2CO}-F[Cit]K([PEG4-X2])F-OH) | 0.02 | – | –
5 | COc1cc2cc(c1Cl)N(C)C(=O)C[C@H](OC(=O)[C@H](C)N(C)C(=O)CCSC1CC(=O)N(CCC(=O)N[C@@H](Cc3ccccc3)C(=O)N[C@@H](CCCNC(N)=O)C(=O)N[C@@H](Cc3ccccc3)C(=O)N[C@@H](CCCCNC(=O)CCOCCOCCOCCOCCNC(=O)CCN3C(=O)CC(SC[C@H](NC(C)=O)C(=O)O)C3=O)C(=O)O)C1=O)[C@]1(C)O[C@H]1[C@H](C)[C@@H]1C[C@@](O)(NC(=O)O1)[C@H](OC)/C=C/C=C(\C)C2 (stereo partly drawn) [compound 7, DM1-Mal-Phe-Cit-Phe-Lys(PEG4-Mal-Cys-Ac)-OH] ({DM1Mal(CH2)2CO}-F[Cit]FK([PEG4-X2])-OH) | 0.09 | – | –
6 | CC[C@H](C)[C@@H]([C@@H](CC(=O)N1CCC[C@H]1[C@H](OC)[C@@H](C)C(=O)N[C@@H](Cc1ccccc1)C(=O)N[C@@H](CCCNC(N)=O)C(=O)N[C@@H](CCCCNC(=O)CCOCCOCCOCCOCCNC(=O)CCN1C(=O)CC(SC[C@H](NC(C)=O)C(=O)O)C1=O)C(=O)N[C@@H](Cc1ccccc1)C(=O)O)OC)N(C)C(=O)[C@@H](NC(=O)[C@H](C(C)C)N(C)C)C(C)C (stereo partly drawn) [compound 8, AF-Cit-Lys(PEG4-Mal-Cys-Ac)-Phe-OH] (NMe2Val-V[Dil][Dolaproine]F[Cit]K([PEG4-X2])F-OH) | 0.09 | – | –
7 | COc1cc2cc(c1Cl)N(C)C(=O)C[C@H](OC(=O)[C@H](C)N(C)C(=O)CCSC1CC(=O)N(CC3CCC(C(=O)N[C@@H](Cc4ccccc4)C(=O)N[C@@H](CCCNC(N)=O)C(=O)N[C@@H](CCCCNC(=O)CCOCCOCCOCCOCCOCCNC(=O)CN4C(=O)CC(SC[C@H](NC(C)=O)C(=O)O)C4=O)C(=O)N[C@@H](Cc4ccc(O)cc4)C(=O)O)CC3)C1=O)[C@]1(C)O[C@H]1[C@H](C)[C@@H]1C[C@@](O)(NC(=O)O1)[C@H](OC)/C=C/C=C(\C)C2 (stereo partly drawn) [compound 11, DM1-Mcc-Phe-Cit-Lys(PEG5-Mal-Cys-Ac)-Tyr-OH] | 0.005 | – | < 1 min
8 | COc1cc2cc(c1Cl)N(C)C(=O)C[C@H](OC(=O)[C@H](C)N(C)C(=O)CCSC1CC(=O)N(CC3CCC(C(=O)N[C@@H](CCCNC(N)=O)C(=O)N[C@@H](CCCCNC(=O)CCOCCOCCOCCOCCOCCNC(=O)CN4C(=O)CC(SC[C@H](NC(C)=O)C(=O)O)C4=O)C(=O)N[C@@H](Cc4ccc(O)cc4)C(=O)O)CC3)C1=O)[C@]1(C)O[C@H]1[C@H](C)[C@@H]1C[C@@](O)(NC(=O)O1)[C@H](OC)/C=C/C=C(\C)C2 (stereo partly drawn) [compound 12, DM1-Mcc-Cit-Lys(PEG5-Mal-Cys-Ac)-Tyr-OH] | 0.00004 | – | < 1 min
